Results taken from patent publication US10392404B2, “Compounds and compositions as kinase inhibitors” (NOVARTIS AG, priority 2014, dated 2019).

Assays:
[1] = molecular target: T1, C-RAF (Homo sapiens, UniProt P04049, Y340E/Y341E); experiment: In vitro Raf activity determination (Alpha Screen, biotinylated kinase-dead MEK1 substrate), C-Raf; format: biochemical; details: c-Raf approximately 4 nM; ATP 1 μM; pre-incubation 60 minutes; reaction 1 hour at room temperature
T1 construct: His tag (implied by nickel chromatography) (cleaved yes); StrepII tag (cleaved yes); made in house; host or cells: Sf9 insect cells (baculovirus), CRAF and h14-3-3 zeta co-expressed; MEK1 substrate from E. coli
Source text: CRAF cDNA was subcloned as full length protein, with Y340E and Y341E activating mutations, into a baculovirus expression vector for Sf9 insect cell expression. h14-3-3 zeta cDNA was subcloned into a baculovirus expression vector for SF9 insect cell expression. Sf9 cells co-expressing both proteins were lysed and subjected to immobilized nickel chromatography and eluted with Imidazole. A second column (StrepII binding column) was used and eluted with desthiobiotin. Protein Tags were removed using Prescission enzyme and the protein was further purified using a flowthrough step to remove tags.
C-Raf TR refers to a truncated C-Raf protein, a Δ1-324 deletion mutant. C-Raf FL refers to the full-length C-Raf protein.
(§1) Full length MEK1 with an inactivating K97R ATP binding site mutation is utilized as a RAF substrate. The MEK1 cDNA was subcloned with an N-terminal (his)6 tag into a vector for E. Coli expression. The MEK1 substrate was purified from E. Coli lysate by nickel affinity chromatography followed by anion exchange. The final MEK1 preparation was biotinylated (Pierce EZ-Link Sulfo-NHS-LC-Biotin) and concentrated.
(§2) Assay Materials: Assay buffer is 50 mM Tris, pH 7.5, 15 mM MgCl2, 0.01% Bovine Serum Albumin (BSA) and 1 mM dithiothreitol (DTT); Stop buffer is 60 mM ethylenediaminetetraacetic acid (EDTA) and 0.01% Tween® 20; b-Raf (V600E), active; biotinylated Mek, kinase dead; Alpha Screen detection kit (available from PerkinElmer™, #6760617R); Anti phospho-MEK1/2 (available from Cell Signaling Technology, Inc. #9121); 384 well low volume assay plates (White Greiner® plates).
(§3) Assay conditions: b-Raf (V600E) approximately 4 pM; c-Raf approximately 4 nM; biotinylated Mek, kinase dead approximately 10 nM; ATP 10 μM for BRAF (V600E) and 1 μM for CRAF; Pre-incubation time with compounds 60 minutes at room temperature; Reaction time 1 or 3 hours at room temperature.
(§4) Assay protocol: Raf and biotinylated Mek (kinase dead) were combined at 2× final concentrations in assay buffer (50 mM Tris, pH 7.5, 15 mM MgCl2, 0.01% BSA and 1 mM DTT) and dispensed […] per well in assay plates (Greiner white 384 well assay plates #781207) containing […] of 40× of a Raf kinase inhibitor test compound diluted in 100% DMSO. The plate was incubated for 60 minutes at room temperature. The Raf kinase activity reaction was started by the addition of […] per well of 2×ATP diluted in assay buffer. After 3 hours (b-Raf(V600E)) or 1 hour (c-Raf). The reactions were stopped and the phosphorylated product was measured using a rabbit anti-p-MEK (Cell Signaling, #9121) antibody and the Alpha Screen IgG (ProteinA) detection Kit (PerkinElmer #6760617R), by the addition of […] to the well of a mixture of the antibody (1:2000 dilution) and detection beads (1:2000 dilution of both beads) in Stop/bead buffer (25 mM EDTA, 50 mM Tris, pH 7.5, 0.01% Tween20). The additions were carried out under dark conditions to protect the detection beads from light. A lid was placed on top of the plate and incubated for 1 hour at room temperature, after which the luminescence was read on a PerkinElmer Envision instrument. The concentration of each compound for 50% inhibition (IC50) was calculated by non-linear regression using XL Fit data analysis software.

[2] = molecular target: T2, b-Raf (V600E) (Homo sapiens, UniProt P15056, V600E); experiment: In vitro Raf activity determination (Alpha Screen, biotinylated kinase-dead MEK1 substrate), B-Raf; format: biochemical; details: b-Raf (V600E) approximately 4 pM; ATP 10 μM; pre-incubation 60 minutes; reaction 3 hours at room temperature
T2 construct: made in house
Procedure: as §1, §2, §3, §4

T1 sequence (P04049 whole entry Y340E/Y341E): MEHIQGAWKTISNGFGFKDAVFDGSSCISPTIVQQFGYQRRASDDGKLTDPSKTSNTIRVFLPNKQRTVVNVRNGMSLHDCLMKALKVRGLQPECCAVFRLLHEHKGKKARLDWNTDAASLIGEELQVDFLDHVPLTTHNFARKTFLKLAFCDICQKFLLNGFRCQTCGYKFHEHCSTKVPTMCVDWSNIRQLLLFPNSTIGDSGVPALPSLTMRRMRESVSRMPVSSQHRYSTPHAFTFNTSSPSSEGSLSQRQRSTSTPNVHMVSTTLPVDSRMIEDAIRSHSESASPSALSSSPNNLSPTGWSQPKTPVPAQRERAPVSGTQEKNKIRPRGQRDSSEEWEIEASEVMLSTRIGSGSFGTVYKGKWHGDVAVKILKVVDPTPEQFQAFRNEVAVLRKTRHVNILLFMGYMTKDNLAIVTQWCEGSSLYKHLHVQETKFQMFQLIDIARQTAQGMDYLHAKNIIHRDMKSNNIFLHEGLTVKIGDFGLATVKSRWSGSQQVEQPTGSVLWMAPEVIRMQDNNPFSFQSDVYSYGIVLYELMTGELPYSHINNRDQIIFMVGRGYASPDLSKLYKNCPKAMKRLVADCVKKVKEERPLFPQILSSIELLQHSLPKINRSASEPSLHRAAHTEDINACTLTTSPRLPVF
T1 sequence (P63104 whole entry partner): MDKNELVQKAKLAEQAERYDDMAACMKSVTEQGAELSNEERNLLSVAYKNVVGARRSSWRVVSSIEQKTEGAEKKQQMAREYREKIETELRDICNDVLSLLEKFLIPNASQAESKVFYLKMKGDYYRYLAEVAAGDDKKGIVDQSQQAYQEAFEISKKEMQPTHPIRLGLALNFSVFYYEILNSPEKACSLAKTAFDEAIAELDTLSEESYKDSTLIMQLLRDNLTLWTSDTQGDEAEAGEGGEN
T2 sequence (P15056 whole entry V600E): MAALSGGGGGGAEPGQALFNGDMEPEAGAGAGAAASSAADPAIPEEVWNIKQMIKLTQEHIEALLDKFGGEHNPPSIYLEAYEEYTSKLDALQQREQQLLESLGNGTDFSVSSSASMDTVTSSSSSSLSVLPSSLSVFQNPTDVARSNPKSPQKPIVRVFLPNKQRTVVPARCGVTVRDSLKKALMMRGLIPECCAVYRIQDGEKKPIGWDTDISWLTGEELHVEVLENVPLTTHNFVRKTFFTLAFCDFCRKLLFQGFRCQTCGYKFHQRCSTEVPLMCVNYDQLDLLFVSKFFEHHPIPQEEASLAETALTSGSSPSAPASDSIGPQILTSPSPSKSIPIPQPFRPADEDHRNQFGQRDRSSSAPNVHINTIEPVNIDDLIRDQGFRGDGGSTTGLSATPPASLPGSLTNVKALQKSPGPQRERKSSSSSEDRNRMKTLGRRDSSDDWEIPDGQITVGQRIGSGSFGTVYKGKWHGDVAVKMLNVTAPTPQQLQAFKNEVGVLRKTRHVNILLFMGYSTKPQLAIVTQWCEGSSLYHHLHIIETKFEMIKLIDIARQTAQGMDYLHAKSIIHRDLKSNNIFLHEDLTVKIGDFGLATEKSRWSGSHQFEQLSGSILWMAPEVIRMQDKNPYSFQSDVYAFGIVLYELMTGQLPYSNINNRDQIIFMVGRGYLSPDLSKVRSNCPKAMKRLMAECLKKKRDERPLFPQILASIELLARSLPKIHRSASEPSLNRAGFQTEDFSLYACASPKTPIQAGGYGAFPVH

Structure (SMILES) | IC50 [1] [nM] | IC50 [2] [nM]
Cc1ccc(NC(=O)c2ccnc(C(C)(C)C#N)c2)cc1-c1cnc(NC2CCOCC2)c(C#N)c1 [Example 60, N-(3-(5-cyano-6-((tetrahydro-2H-pyran-4-yl)amino)pyridin-3-yl)-4-methylphenyl)-2-(2-cyanopropan-2-yl)isonicotinamide] | 0.367 | 1.08
Cc1ccc(NC(=O)c2ccnc(C(F)(F)F)c2)cc1-c1cnc(NC2CCOCC2)c(C#N)c1 [Example 61, N-(3-(5-cyano-6-((tetrahydro-2H-pyran-4-yl)amino)pyridin-3-yl)-4-methylphenyl)-2-(trifluoromethyl) isonicotinamide] | 0.194 | 0.509
Cc1ccc(NC(=O)c2ccnc(C(F)(F)F)c2)cc1-c1cnc(N2CCOCC2)c(C#N)c1 [Example 62, N-(3-(5-cyano-6-morpholinopyridin-3-yl)-4-methylphenyl)-2-(trifluoromethyl) isonicotinamide] | 0.158 | 0.477
Cc1ccc(NC(=O)c2ccnc(C(F)(F)F)c2)cc1-c1cnc(N2CC(O)C2)c(C#N)c1 [Example 63, N-(3-(5-cyano-6-(3-hydroxyazetidin-1-yl)pyridin-3-yl)-4-methylphenyl)-2-(trifluoromethyl) isonicotinamide] | 0.121 | 0.488
Cc1ncc(NC(=O)c2ccnc(C(C)(C)C#N)c2)cc1-c1cnc(N2CCOCC2)c(C#N)c1 [Example 64, N-(5′-cyano-2-methyl-6′-morpholino-[3,3′-bipyridin]-5-yl)-2-(2-cyanopropan-2-yl)isonicotinamide] | 0.832 | 3.7
Cc1ncc(NC(=O)c2ccnc(C(C)(C)C#N)c2)cc1-c1cnc(N2CC(O)C2)c(C#N)c1 [Example 65, N-(5′-cyano-6′-(3-hydroxyazetidin-1-yl)-2-methyl-[3,3′-bipyridin]-5-yl)-2-(2-cyanopropan-2-yl)isonicotinamide] | 2.7 | 14.5
Cc1ncc(NC(=O)c2cccc(C(F)(F)F)c2)cc1-c1cnc(N2CCOCC2)c(C#N)c1 [Example 66, N-(5′-cyano-2-methyl-6′-morpholino-[3,3′-bipyridin]-5-yl)-3-(trifluoromethyl) benzamide] | 0.203 | 0.852
Cc1ncc(NC(=O)c2cccc(C(F)(F)F)c2)cc1-c1cnc(N2CC(O)C2)c(C#N)c1 [Example 67, N-(5′-cyano-6′-(3-hydroxyazetidin-1-yl)-2-methyl-[3,3′-bipyridin]-5-yl)-3-(trifluoromethyl) benzamide] | 0.225 | 1.24
Cc1ncc(NC(=O)c2ccnc(C(F)(F)F)c2)cc1-c1cnc(N2CCOCC2)c(C#N)c1 [Example 68, N-(5′-cyano-2-methyl-6′-morpholino-[3,3′-bipyridin]-5-yl)-2-(trifluoromethyl) isonicotinamide] | 0.223 | 0.902
Cc1ncc(NC(=O)c2ccnc(C(F)(F)F)c2)cc1-c1cnc(N2CC(O)C2)c(C#N)c1 [Example 69, N-(5′-cyano-6′-(3-hydroxyazetidin-1-yl)-2-methyl-[3,3′-bipyridin]-5-yl)-2-(trifluoromethyl) isonicotinamide] | 0.46 | 2.56
Cc1ncc(NC(=O)c2ccnc(C(F)(F)F)c2)cc1-c1cnc(N2CCNCC2)c(C#N)c1 [Example 70, N-(5′-cyano-2-methyl-6′-(piperazin-1-yl)-[3,3′-bipyridin]-5-yl)-2-(trifluoromethyl) isonicotinamide] | 0.418 | 0.994
Cc1ncc(NC(=O)c2ccnc(C(C)(C)C#N)c2)cc1-c1cnc(N2CCNCC2)c(C#N)c1 [Example 71, N-(5′-cyano-2-methyl-6′-(piperazin-1-yl)-[3,3′-bipyridin]-5-yl)-2-(2-cyanopropan-2-yl)isonicotinamide] | 1.97 | 4.03
Cc1ncc(NC(=O)c2ccnc(C(C)(C)C#N)c2)cc1-c1cnc(NC2CCOCC2)c(C#N)c1 [Example 72, N-(5′-cyano-2-methyl-6′-((tetrahydro-2H-pyran-4-yl)amino)-[3,3′-bipyridin]-5-yl)-2-(2-cyanopropan-2-yl)isonicotinamide] | 1.53 | 6.47
Cc1ncc(NC(=O)c2ccnc(C(C)(C)C#N)c2)cc1-c1cnc(N2CCCC2)c(C#N)c1 [Example 73, N-(5′-cyano-2-methyl-6′-(pyrrolidin-1-yl)-[3,3′-bipyridin]-5-yl)-2-(2-cyanopropan-2-yl)isonicotinamide] | 2.09 | 8.66
Cc1ncc(NC(=O)c2ccnc(C(C)(C)C#N)c2)cc1-c1cnc(N2CCO[C@@H](C)C2)c(C#N)c1 [Example 74, (S)-N-(5′-cyano-2-methyl-6′-(2-methylmorpholino)-[3,3′-bipyridin]-5-yl)-2-(2-cyanopropan-2-yl)isonicotinamide] | 1.64 | 5.54
Cc1ncc(NC(=O)c2ccnc(C(C)(C)C#N)c2)cc1-c1cnc(N2CCO[C@H](C)C2)c(C#N)c1 [Example 75, (R)-N-(5′-cyano-2-methyl-6′-(2-methylmorpholino)-[3,3′-bipyridin]-5-yl)-2-(2-cyanopropan-2-yl)isonicotinamide] | 1.2 | 3.79
Cc1ncc(NC(=O)c2ccnc(C(C)(C)C#N)c2)cc1-c1cnc(N2CCC2)c(C#N)c1 [Example 76, N-(6′-(azetidin-1-yl)-5′-cyano-2-methyl-[3,3′-bipyridin]-5-yl)-2-(2-cyanopropan-2-yl)isonicotinamide] | 1.53 | 9.01
Cc1ncc(NC(=O)c2ccnc(C(C)(C)C#N)c2)cc1-c1cnc(NC2CCOC2)c(C#N)c1 (stereo not shown) [Example 77, N-(5′-cyano-2-methyl-6′-((tetrahydrofuran-3-yl)amino)-[3,3′-bipyridin]-5-yl)-2-(2-cyanopropan-2-yl)isonicotinamide] | 2.53 | 9.28
Cc1ncc(NC(=O)c2ccnc(C(C)(C)C#N)c2)cc1-c1cnc(N2CCOC[C@H]2C)c(C#N)c1 [Example 79, (R)-N-(5′-cyano-2-methyl-6′-(3-methylmorpholino)-[3,3′-bipyridin]-5-yl)-2-(2-cyanopropan-2-yl)isonicotinamide] | 1.51 | 4.34
Cc1ncc(NC(=O)c2ccnc(C(C)(C)C#N)c2)cc1-c1cnc(NC2COC2)c(C#N)c1 [Example 80, N-(5′-cyano-2-methyl-6′-(oxetan-3-ylamino)-[3,3′-bipyridin]-5-yl)-2-(2-cyanopropan-2-yl)isonicotinamide] | 1.93 | 12.6
Cc1ncc(NC(=O)c2ccnc(C(C)(C)C#N)c2)cc1-c1cnc(-n2ccnc2C)c(C#N)c1 [Example 81, N-(5′-cyano-2-methyl-6′-(2-methyl-1H-imidazol-1-yl)-[3,3′-bipyridin]-5-yl)-2-(2-cyanopropan-2-yl)isonicotinamide] | 15.1 | 90.6
Cc1ncc(NC(=O)c2ccnc(C(C)(C)C#N)c2)cc1-c1cnc(NC2CC2)c(C#N)c1 [Example 82, N-(5′-cyano-6′-(cyclopropylamino)-2-methyl-[3,3′-bypyridin]-5-yl)-2-(2-cyanopropan-2-yl)isonicotinamide] | 2.04 | 10.8
Cc1ccn(-c2ncc(-c3cc(NC(=O)c4ccnc(C(C)(C)C#N)c4)cnc3C)cc2C#N)n1 [Example 83, N-(5′-cyano-2-methyl-6′-(3-methyl-1H-pyrazol-1-yl)-[3,3′-bipyridin]-5-yl)-2-(2-cyanopropan-2-yl)isonicotinamide] | 4.89 | 23.7
